# Source: patent US7381540B2, “Composition for measuring glucose having improved substrate specificity” (Toyo Boseki Kabushiki Kaisha, priority 2005, dated 2008)
# Columns and labels:
# modified PQQGDH [1] = assay: Substrate specificity using glucose assay system (ferricyanide reduction, absorbance 420 nm); type: biochemical
# Procedure: D-glucose+ferricyanide ion+PQQGDH D-glucono-1,5-lactone+ferrocyanide ion
# Specificity to each substrate can be determined by changing D-glucose to other saccharides. The presence of the ferrocyanide ion produced by reduction of the ferricyanide ion was confirmed by measuring the decrease of absorbance at a wavelength of 420 nm by spectrophotometry.
# A. […]
# B. Potassium ferricyanide solution: 50 mM (0.165 g potassium ferricyanide (molecular weight: 329.25) dissolved in 10 ml of distilled water)
# C. PQQGDH solution: 31000 U/ml (approx. 128 mg PQQGDH (Toyobo: GLD-331) dissolved in 5 ml of distilled water)
# D. Substrate solution (D-glucose solution or maltose solution): 100 or 400 mM
# • 1. The following reaction mixture was prepared in a light shielding bottle, and stored on ice (prepared at use). 48.2 mL of each buffer solution (pH6.5) (A) • 4.0 mL of potassium ferricyanide solution (B) • 0.19 mL of (C) • 2. 2.65 ml of the reaction mixture and 0.3 ml of additive were placed in a test tube (plastic) and pre-warmed for 5 minutes at 37° C. • 3. 0.15 ml of substrate solution (D) were added and mixed gently. • 4. The reduction in the absorbance relative to water at 420 nm was recorded for 1 to 3 minutes with a spectrophotometer while maintaining at a temperature of 37° C., and the ΔOD per minute was calculated from the initial linear portion of the curve (ΔOD test). At the same time, the same procedure was carried out with the exception of adding distilled water instead of glucose solution followed by measurement of the blank (ΔOD blank).
# The above-mentioned procedure was carried out at each of the predetermined concentrations shown in Tables 1 to 3 using as additives succinic acid, adipic acid, suberic acid, pimeric acid, potassium chloride, ammonium chloride, diammonium hydrogen citrate, malonic acid, L-lysine, taurine, 3,3-dimethylglutaric acid, malic acid, glutaric acid, calcium glycerate, amino-n-butyric acid, sodium glycolate, sodium α-ketoglutarate, fumaric acid, glycerin, glutamic acid and serine. And the procedure was also carried out for those not containing additives to assess the effects of additives.
# Variation in absorbance per unit time was determined by calculating ΔOD/min(ΔOD test−ΔOD blank)
# To evaluate whether activity had declined with respect to sugars other than glucose, the ΔOD/min (a) with D-glucose as the substrate solution and the ΔOD/min (b) with the other sugar in place of D-glucose as the substrate solution were measured, and the relative value ((b)/(a)×100) was calculated given 100 as the measurement value with glucose as the substrate.
# In each of Tables 3 to 5, in the case the value of the ratio of measured values of maltose and glucose (maltose/glucose) relative to the control (control: no addition) is small, activity with respect to maltose during glucose measurement decreases.
# modified PQQGDH [2] = assay: Maltose activity of glucose electrode loaded with modified PQQGDH (oxidation current, potassium ferricyanide mediator); type: biochemical, Acinetobacter baumannii strain NCIMB11517; conditions: solute 50 mM, pH 5.5; glucose or maltose 4 mM; 0.1 M potassium ferricyanide; +0.35 V; 25° C.
# Procedure: 0.5 g of carbon graphite were placed in a mortar followed by the addition of 0.3 ml of liquid paraffin and kneading with a pestle for 30 minutes to produce a carbon paste. The resulting carbon paste was spread onto a platinum electrode followed by the addition of 10 μl of the modified PQQGDH solution (2,000 U/ml) produced in Example 2 and air drying for 30 minutes at room temperature. A cut cellulose semi-permeable membrane (molecular weight: 8,000) was placed over the dried enzyme electrode and the semi-permeable membrane was immobilized with plastic O-rings. The glucose electrode produced in this manner was then used after preliminarily immersing in the cold reaction solvent for 30 minutes.
# The substances listed in Table 1 were used as solutes, and buffers were respectively prepared having a final concentration of 50 mM (pH 5.5). Each of the solvents contained an activator/stabilizer in the form of calcium chloride at 1 mM and surfactant in the form of 0.1% Triton X-100 in addition to the solute listed in Table 1. Potassium ferricyanide was dissolved in each of the produced solvents to a concentration of 0.1 M to prepare reaction solutions.
# 50 mM phosphoric acid or pimeric acid solution containing 1 mM calcium chloride and 0.1% Triton X-100 (consisting of three types having pH values of 5.0, 6.0 and 7.0, respectively) were prepared. Maltose activity of the glucose electrode was investigated for each according to the method of Example 5.
# modified PQQGDH [3] = assay: Substrate specificity using glucose assay system (ferricyanide reduction, absorbance 420 nm); type: biochemical; conditions: potassium phosphate buffer pH 7.0
# [4] = glutaric acid buffer pH 7.0, reagent 0.1%, substrate 4.8 mM, control 0.86
# [5] = glutaric acid buffer pH 7.0, reagent 0.1%, substrate 19.2 mM, control 0.94
# [6] = glutaric acid buffer pH 7.0, reagent 1%, substrate 4.8 mM, control 0.86
# [7] = glutaric acid buffer pH 7.0, reagent 1%, substrate 19.2 mM, control 0.94
# [8] = reagent 0.5%, substrate 4.8 mM, control 0.85
# [9] = reagent 1%, substrate 4.8 mM, control 0.85
# [10] = reagent 2%, substrate 4.8 mM, control 0.85
# [11] = reagent 2%, substrate 19.2 mM, control 0.93
# [12] = phthalic acid buffer pH 7.0, reagent 0.5%, substrate 4.8 mM, control 0.72
# [13] = phthalic acid buffer pH 7.0, reagent 0.5%, substrate 19.2 mM, control 0.75
# [14] = phthalic acid buffer pH 7.0, reagent 1%, substrate 4.8 mM, control 0.72
# [15] = phthalic acid buffer pH 7.0, reagent 1%, substrate 19.2 mM, control 0.75
# [16] = phthalic acid buffer pH 7.0, reagent 2%, substrate 4.8 mM, control 0.72
# [17] = phthalic acid buffer pH 7.0, reagent 2%, substrate 19.2 mM, control 0.75
# [18] = potassium phosphate buffer pH 7.0, reagent 0.5%, substrate 19.2 mM, control 0.93
# [19] = potassium phosphate buffer pH 7.0, reagent 1%, substrate 19.2 mM, control 0.93
smiles,measurement,setting,value
O=C([O-])C(O)CO.O=C([O-])C(O)CO.[Ca+2] (racemic) [Calcium DL-glycerate],Maltose/glucose ratio,"modified PQQGDH [1]; glutaric acid buffer pH 7.0, reagent 0.33%, substrate 4.8 mM, control 0.86",0.60
same,Maltose/glucose ratio,"modified PQQGDH [1]; glutaric acid buffer pH 7.0, reagent 0.33%, substrate 19.2 mM, control 0.94",0.82
"O=C(O)CC(O)C(=O)O (racemic) [D,L-malic acid]",Maltose Activity (%),modified PQQGDH [2],18.9%
same,Maltose/glucose ratio,modified PQQGDH [1]; [4],0.57
same,Maltose/glucose ratio,modified PQQGDH [1]; [5],0.77
same,Maltose/glucose ratio,modified PQQGDH [1]; [6],0.34
same,Maltose/glucose ratio,modified PQQGDH [1]; [7],0.40
O=C(O)CCC(=O)C(=O)O [2-ketoglutaric acid],Maltose Activity (%),modified PQQGDH [2],19.3%
"CC(=O)O [Acetic acid, reference compound]",Maltose Activity (%),modified PQQGDH [2],35.5%
O=C(O)CCCCC(=O)O [Adipic acid],Maltose Activity (%),modified PQQGDH [2],20.7%
same,Maltose/glucose ratio,modified PQQGDH [1]; [4],0.73
same,Maltose/glucose ratio,modified PQQGDH [1]; [5],0.84
same,Maltose/glucose ratio,modified PQQGDH [1]; [6],0.43
same,Maltose/glucose ratio,modified PQQGDH [1]; [7],0.67
same,Maltose/glucose ratio,"modified PQQGDH [1]; phthalic acid buffer pH 7.0, reagent 0.05%, substrate 4.8 mM, control 0.72",0.66
same,Maltose/glucose ratio,"modified PQQGDH [1]; phthalic acid buffer pH 7.0, reagent 0.05%, substrate 19.2 mM, control 0.75",0.68
same,Maltose/glucose ratio,"modified PQQGDH [1]; phthalic acid buffer pH 7.0, reagent 0.1%, substrate 4.8 mM, control 0.72",0.65
same,Maltose/glucose ratio,"modified PQQGDH [1]; phthalic acid buffer pH 7.0, reagent 0.1%, substrate 19.2 mM, control 0.75",0.64
same,Maltose/glucose ratio,"modified PQQGDH [1]; phthalic acid buffer pH 7.0, reagent 0.2%, substrate 4.8 mM, control 0.72",0.65
same,Maltose/glucose ratio,"modified PQQGDH [1]; phthalic acid buffer pH 7.0, reagent 0.2%, substrate 19.2 mM, control 0.75",0.58
Cl.N [Ammonium chloride],Maltose/glucose ratio,modified PQQGDH [3]; [8],0.72
same,Maltose/glucose ratio,modified PQQGDH [3]; [9],0.58
same,Maltose/glucose ratio,modified PQQGDH [3]; [10],0.43
same,Maltose/glucose ratio,modified PQQGDH [3]; [11],0.70
same,Maltose/glucose ratio,modified PQQGDH [1]; [6],0.56
same,Maltose/glucose ratio,modified PQQGDH [1]; [7],0.71
same,Maltose/glucose ratio,modified PQQGDH [1]; [12],0.60
same,Maltose/glucose ratio,modified PQQGDH [1]; [13],0.67
same,Maltose/glucose ratio,modified PQQGDH [1]; [14],0.57
same,Maltose/glucose ratio,modified PQQGDH [1]; [15],0.59
same,Maltose/glucose ratio,modified PQQGDH [1]; [16],0.52
same,Maltose/glucose ratio,modified PQQGDH [1]; [17],0.52
same,Maltose/glucose ratio,modified PQQGDH [1]; [18],0.91
same,Maltose/glucose ratio,modified PQQGDH [1]; [19],0.84
O=C(O)CC(O)(CC(=O)O)C(=O)O [Citric acid],Maltose Activity (%),modified PQQGDH [2],23.4%
N[C@H](CCC(=O)O)C(=O)O [D-glutamic acid],Maltose/glucose ratio,modified PQQGDH [1]; [4],0.73
same,Maltose/glucose ratio,modified PQQGDH [1]; [5],0.89
N.N.O=C(O)CC(O)(CC(=O)O)C(=O)O [Diammonium hydrogen citrate],Maltose/glucose ratio,modified PQQGDH [3]; [8],0.64
same,Maltose/glucose ratio,modified PQQGDH [3]; [9],0.52
same,Maltose/glucose ratio,modified PQQGDH [3]; [10],0.36
same,Maltose/glucose ratio,modified PQQGDH [3]; [11],0.54
same,Maltose/glucose ratio,modified PQQGDH [1]; [4],0.78
same,Maltose/glucose ratio,modified PQQGDH [1]; [5],0.90
same,Maltose/glucose ratio,modified PQQGDH [1]; [6],0.59
same,Maltose/glucose ratio,modified PQQGDH [1]; [7],0.82
same,Maltose/glucose ratio,modified PQQGDH [1]; [12],0.79
same,Maltose/glucose ratio,modified PQQGDH [1]; [13],0.55
same,Maltose/glucose ratio,modified PQQGDH [1]; [14],0.80
same,Maltose/glucose ratio,modified PQQGDH [1]; [15],0.70
same,Maltose/glucose ratio,modified PQQGDH [1]; [16],0.89
same,Maltose/glucose ratio,modified PQQGDH [1]; [17],0.63
same,Maltose/glucose ratio,modified PQQGDH [1]; [18],0.88
same,Maltose/glucose ratio,modified PQQGDH [1]; [19],0.76
same,activity with respect to maltose compared with the control (in words),"modified PQQGDH [1]; substrate concentration of 4.8 mM, in some cases",did not decrease
O=C(O)/C=C/C(=O)O [Fumaric acid],Maltose/glucose ratio,modified PQQGDH [1]; [6],0.68
same,Maltose/glucose ratio,modified PQQGDH [1]; [7],0.88
O=C(O)CCCC(=O)O [Glutaric acid],Maltose Activity (%),modified PQQGDH [2],22.1%
same,Maltose/glucose ratio,modified PQQGDH [1]; [4],0.65
same,Maltose/glucose ratio,modified PQQGDH [1]; [5],0.81
same,Maltose/glucose ratio,modified PQQGDH [1]; [6],0.34
same,Maltose/glucose ratio,modified PQQGDH [1]; [7],0.54
